Converted amounts (≈) assume the structure as drawn. Read-outs that look alike come from different tables or passages of the source.

Common to all, as to type: cell-based
The subject of assay [1] is Staphylococcus aureus X1.1. Briefly: Agar-dilution MIC, Staphylococcus aureus X1.1. An excerpt:
(§1) The compounds of formulas 1 and 2 inhibit the growth of certain pathogenic bacteria, especially Gram-positive bacteria and Gram-negative […] such as Haemophilus influenzae.

In assay [2] the test system is Staphylococcus aureus V41. The assay can be described thus: Agar-dilution MIC, Staphylococcus aureus V41. The following applies: Staphylococcus aureus V41, penicillin-resistant strain, read-out: minimal inhibitory concentration (MIC).
Text: as §1

In assay [3] the test system is Staphylococcus epidermidis 270. Briefly: Agar-dilution MIC, Staphylococcus epidermidis 270. To be noted: read-out: minimal inhibitory concentration (MIC).
Text: as §1

Assay [4] relates to Staphylococcus epidermidis 222. Briefly: Agar-dilution MIC, Staphylococcus epidermidis 222. To be noted: read-out: minimal inhibitory concentration (MIC).
Text: as §1

The subject of assay [5] is Streptococcus pyogenes C203. Briefly: Agar-dilution MIC, Streptococcus pyogenes C203. The following applies: read-out: minimal inhibitory concentration (MIC).
Text: as §1

Assay [6] concerns Streptococcus pneumoniae Park I. Briefly: Agar-dilution MIC, Streptococcus pneumoniae Park I. The following applies: read-out: minimal inhibitory concentration (MIC).
Text: as §1

Assay [7] has as its system Streptococcus faecalis X66. Briefly: Agar-dilution MIC, Streptococcus faecalis X66. The following applies: Enterococcus faecalis, read-out: minimal inhibitory concentration (MIC).
Text: as §1

The subject of assay [8] is Streptococcus faecalis 2041. Briefly: Agar-dilution MIC, Streptococcus faecalis 2041. The following applies: Enterococcus faecalis, read-out: minimal inhibitory concentration (MIC).
Text: as §1

For assay [9], the system named is Haemophilus influenzae C.L. Briefly: Agar-dilution MIC, Haemophilus influenzae C.L. The following applies: ampicillin-sensitive strain, read-out: minimal inhibitory concentration (MIC).
Text: as §1

Assay [10] deals with Haemophilus influenzae 76. Briefly: Agar-dilution MIC, Haemophilus influenzae 76. The following applies: Haemophilus influenzae 76, ampicillin-resistant strain, read-out: minimal inhibitory concentration (MIC).
Text: as §1

Where [11] appears, read: Staphylococcus aureus X1.1, agar dilution, read-out: minimal inhibitory concentration (MIC).

Take `CC[C@@H](O)[C@@](C)(O)[C@@H]1OC(=O)[C@H](C)[C@@H](O[C@H]2C[C@@](C)(OC)[C@@H](O)[C@H](C)O2)[C@H](C)[C@@H](O[C@@H]2O[C@H](C)C[C@H](N(C)C)[C@H]2O)[C@@]2(C)CC(C)(O)C(O)(O2)[C@@H]1C` (some centres unmarked) [Compound 6]: the MIC is 128 µg/mL (≈ 171 µM) in assay [1] (Staphylococcus aureus, X1.1, read-out: minimal inhibitory concentration (MIC)); above 128 µg/mL in assay [2]; above 128 µg/mL in [3]; 64 µg/mL (≈ 85.3 µM) in assay [4]; 16 µg/mL (≈ 21.3 µM) in assay [5]; 8 µg/mL (≈ 10.7 µM) in [6]. Moreover, the MIC in [7] came to 16 µg/mL (≈ 21.3 µM); in [8] it was 64 µg/mL (≈ 85.3 µM); in assay [9], 8 µg/mL (≈ 10.7 µM); in assay [10] it was 8 µg/mL (≈ 10.7 µM).
On to `CC[C@@H](O)[C@@](C)(O)[C@@H]1OC(=O)[C@H](C)[C@@H](O[C@H]2C[C@@](C)(OC)[C@@H](O)[C@H](C)O2)[C@H](C)[C@@H](O[C@@H]2O[C@H](C)C[C@H](N(C)C)[C@H]2O)[C@@]2(C)CC(C)=C(O2)[C@@H]1C` [Compound 3], for which the MIC was above 128 µg/mL in assay [1] (setting [11]); above 128 µg/mL in assay [2]; above 128 µg/mL in [3]; above 128 µg/mL in assay [4]; 32 µg/mL (≈ 44.7 µM) in [5]; 16 µg/mL (≈ 22.3 µM) in assay [6]. The MIC in [7] is 64 µg/mL (≈ 89.4 µM); in assay [8], above 128 µg/mL; in assay [9], 32 µg/mL (≈ 44.7 µM); in assay [10], 32 µg/mL (≈ 44.7 µM).
For the molecule `CO[C@]1(C)C[C@H](O[C@H]2[C@H](C)[C@@H](O[C@@H]3O[C@H](C)C[C@H](N(C)C)[C@H]3O)[C@@]3(C)CC(C)=C(O3)[C@H](C)[C@H](C(C)=O)OC(=O)[C@@H]2C)O[C@@H](C)[C@@H]1O` [Compound 4], the MIC in assay [1] (setting [11]) is above 128 µg/mL; in assay [2], above 128 µg/mL; in assay [3], above 128 µg/mL; in [4] it was above 128 µg/mL; in [5], 64 µg/mL (≈ 97.6 µM); in [6], 32 µg/mL (≈ 48.8 µM). Moreover, the MIC in [7] came to 16 µg/mL (≈ 24.4 µM); in assay [8], 128 µg/mL (≈ 195 µM); in [9], 16 µg/mL (≈ 24.4 µM); in assay [10] it was 16 µg/mL (≈ 24.4 µM).
For `CC[C@@H](O)[C@H](C)[C@@H]1OC(=O)[C@H](C)[C@@H](O[C@H]2C[C@@](C)(OC)[C@@H](O)[C@H](C)O2)[C@H](C)[C@@H](O[C@@H]2O[C@H](C)C[C@H](N(C)C)[C@H]2O)[C@@]2(C)CC(C)=C(O2)[C@@H]1C` [Compound 3a], the MIC in assay [1] (setting [11]) was 64 µg/mL (≈ 91.4 µM); in assay [2], above 128 µg/mL; in [3], 64 µg/mL (≈ 91.4 µM); in assay [4], 64 µg/mL (≈ 91.4 µM); in [5], 64 µg/mL (≈ 91.4 µM); in assay [6] it was 64 µg/mL (≈ 91.4 µM). Further, the MIC in [7] is 64 µg/mL (≈ 91.4 µM); in assay [8], 64 µg/mL (≈ 91.4 µM); in assay [9] it was 128 µg/mL (≈ 183 µM); in assay [10] it was 128 µg/mL (≈ 183 µM).
On to `CO[C@]1(C)C[C@H](O[C@H]2[C@H](C)[C@@H](O[C@@H]3O[C@H](C)C[C@H](N(C)C)[C@H]3O)[C@@](C)(CC(C)=O)OC(=O)[C@H](C)[C@H](C(C)=O)OC(=O)[C@@H]2C)O[C@@H](C)[C@@H]1O` [Compound 8], for which the MIC in assay [1] (setting [11]) was above 128 µg/mL; in assay [2] it was above 128 µg/mL; in assay [3], above 128 µg/mL; in [4], above 128 µg/mL; in [5], 128 µg/mL (≈ 186 µM); in [6], 32 µg/mL (≈ 46.5 µM). For the same molecule, the MIC is 64 µg/mL (≈ 93 µM) in assay [7], above 128 µg/mL in [8], 64 µg/mL (≈ 93 µM) in assay [9] and 64 µg/mL (≈ 93 µM) in assay [10].

Source of the values: patent US5106961A, “Erythromycin ring-contracted derivatives” (Eli Lilly and Company, priority 1989, dated 1992).
